Reference: publication PMC10951066, “The self-reactive FVIII T cell repertoire in healthy individuals relies on a short set of epitopes and public clonotypes” (Frontiers in Immunology, 2024)

Key:
HLA-DRB1*1101 = HLA-DRB1*1101 (Homo sapiens, UniProt P01903+P01911, A100R/A169T/A87E/I96F/K41T/L162R/M171V/P40S/Q125H/Q178H/Q39Y/Q99D/R42S/S66Y/T262R/V115G/W38E); assay: Peptide-MHCII competition binding assay; conditions: competition ELISA, pH 5.9, peptide 90.000nM – 0.9nM, HLA-DRB1 30 nM, biotinylated peptide 15nM, duplicate wells; ratios below 10 = good binding; reference peptide […]
Experimental: (§1) Quantitative peptide-MHCII competition binding assays were carried out to determine binding avidities of the 18 20-mer FVIII peptides to 6 HLA-DRB1. Data are presented as ratio between reference peptide IC50/FVIII-peptide IC50 tested. Briefly, non-biotinylated FVIII peptides have been diluted at a concentration of 20 mM in DMSO. 10-µl aliquots of serially diluted (90.000nM – 0.9nM in n-Octyl b-D-Glucopyranoside, 2.5 mg/ml in 1x phosphate buffer, pH 5.9) of non-biotinylated FVIII peptides, were added to duplicate wells of 96-well polypropylene plates. Serially diluted non-FVIII reference peptides known to bind to the specific HLA-DRB1 were added to separate wells as positive controls. Next, the biotinylated peptide at a concentration of 2mM was use to prepare 1000-fold pre-dilution to reach a final concentration of 15nM. The HLA-DRB1 proteins were diluted to 30 nM in n-Octyl β-D-Glucopyranoside, 2.5 mg/ml in 1x phosphate buffer, pH 5.9. […] SA-HRP (diluted 5000x in 1xPBS 0.1% Tween20) was added to each well. The plates were covered and incubated at room temperature for 60 min […] and washed. TMB (100 μl/well) was then added, and the plates were incubated at room temperature for 15-30 min. ELISA stopping solution (0.5M H2SO4) was added and then read on a FLUOstar OPTIMA fluorometer. Sigmoidal binding curves were simulated and IC50 values calculated for the FVIII peptides, based on their competition with the reference peptides for each HLA-DRB1. Data were reported as the ratio between the values of the tested peptide and of the reference peptide. Ratios below 10 correspond to good biding affinity.

HLA-DRB1*0701 = HLA-DRB1*0701 (Homo sapiens, UniProt P01903+P01911, A100R/A102G/A103Q/D57E/D86V/E43K/F76Y/K127E/L162R/M171V/P40G/Q125H/Q99D/R33Q/R42Y/R54Q/S133A/S66F/T210M/V115G/Y107V/Y59L/Y89S); assay: Peptide-MHCII competition binding assay; conditions: competition ELISA, pH 5.9, peptide 90.000nM – 0.9nM, HLA-DRB1 30 nM, biotinylated peptide 15nM, duplicate wells; ratios below 10 = good binding; reference peptide PVDLHAFLSQAVFS
Experimental: as §1

HLA-DRB1*0101 = HLA-DRB1*0101 (Homo sapiens, UniProt P01903+P01911, A100R/D57E/F55L/F60I/F76Y/I96L/L162R/M171V/P40L/Q125E/R42F/V115G/Y59C); assay: Peptide-MHCII competition binding assay; conditions: competition ELISA, pH 5.9, peptide 90.000nM – 0.9nM, HLA-DRB1 30 nM, biotinylated peptide 15nM, duplicate wells; ratios below 10 = good binding; reference peptide […]
Experimental: as §1

HLA-DRB1*1501 = HLA-DRB1*1501 (Homo sapiens, UniProt P01903+P01911); assay: Peptide-MHCII competition binding assay; conditions: competition ELISA, pH 5.9, peptide 90.000nM – 0.9nM, HLA-DRB1 30 nM, biotinylated peptide 15nM, duplicate wells; ratios below 10 = good binding; reference peptide ENPVVHFFKNIVTPR
Experimental: as §1

[1] = system: CD4 T cells from healthy donors; assay: Large-scale CD4 T cell epitope mapping by IFN-γ ELISPOT (16 donors); assay type: cell-based, human
Text: PBMCs were purified from the whole blood of anonymous healthy donors, who gave informed consent (Etablissement Français du Sang, Rungis, France), using Ficoll-Paque®. Monocyte-derived dendritic cells (DCs) were produced from cells isolated using Percoll gradient by 5 days of culture in AIM-V medium (Invitrogen, Villebon-sur-Yvette, France) supplemented with 1,000 U/ml recombinant human (rh) IL-4 and rhGM-CSF (both from R&D Systems, Lille, France). Mature DCs were produced by two supplementary days of culture in the presence of LPS (1 µg/ml) and R848 (10µg/ml). CD4 T cells were isolated from autologous PBMCs by positive selection using magnetic labeling with anti-CD4 mAbs conjugated to magnetic microbeads followed by magnetic cell sorting, as recommended by the manufacturer (Miltenyi Biotec, Bergisch Gladbach, Germany). Immature DCs were loaded overnight at 37 °C with either 0.2 µM of rFVIII, 0.2 µM of ovalbumin, or 0.25 µM of KLH in 96-well U-bottom plates, while mature DCs were used for FVIII peptides (10 ug/ml). CD4 T cell lines were generated in vitro in IMDM (Invitrogen) supplemented with 10% human serum, 0.24 mM glutamine, 0.55 mM asparagine, 1.5 mM arginine (all amino acids from Sigma-Aldrich), 50 U/mL penicillin/50 μg/mL of streptomycin (Invitrogen), 20 IU/mL human IL-2, and 17 IU/ml human IL-7 (premium-grade; Miltenyi Biotec) by three once-per-week rounds of stimulation of CD4 T cells (200,000 per well) with autologous DCs (20,000 per well). 10,000 lymphocytes were collected at day 19 from each T cell line (expanded T cells contained in one well) and their specificity was assessed by using IFN-g ELISPOT.
The T cell lines and APCs were plated at equal number for both stimulated and unstimulated control conditions. […] The spot number was determined by using the ELISPOT Reader System (Autoimmun Diagnostika, Ebinger, Germany). HLA restriction was assessed using monoclonal antibodies (10 μg/ml) specific to HLA-DP (B7/21), HLA-DQ (SPVL3), or HLA-DR (L243).
Based on the T cell epitope prediction software NetMHCpan4.0 ([23]), we selected 63 20-mer peptides that are predicted for their ability to bind promiscuously, with a percentile score below 10%, at least four HLA class II molecules from a selection of 15 preponderant HLA-DR alleles in our panel (as shown in ST1). […] A total of 16 healthy donors with unrelated HLA typing (ST2) were used as sources of T cells to identify FVIII-specific CD4 T cell epitopes. Specific T cell lines were generated by in vitro T cell culture using FVIII and KLH. The peptide specificity of the T cell lines raised against FVIII was assessed by two independent IFN-γ ELISPOT using peptide pools and individual peptides. […] Furthermore, four independent healthy donors were used as sources of T cells to characterize the HLA restriction and to assess the reactivity of T cell lines generated with the 18 peptides toward rFVIII. T cell lines were amplified in vitro for 28 days through stimulation with the pool of 18 peptides and then tested through IFN-γ ELISPOT.

YDTVVITLKNMASHPVSLHA [P100-119, 20-mer FVIII peptide, A1 domain]
Ratio IC50 DRB1*1101 (HLA-DRB1*1101): 2
Ratio IC50 DRB1*0701 (HLA-DRB1*0701): 3
Ratio IC50 DRB1*0101 (HLA-DRB1*0101): 226
Ratio IC50 DRB1*1501 (HLA-DRB1*1501): 0.5
nb positive T cell lines ([1]; across all 16 donors): 44
cumulative donor coverage (%) ([1]; cumulative over peptides ranked by donor coverage): 81%
Donor coverage ( %) ([1]; of 16 donors): 69%
responding donors ([1]; of 16 healthy donors, individual peptide 10 µg/ml): 11
response intensity ( %) ([1]; percentage of 872 FVIII-specific T cell lines): 5,05%
